Measurements from patent US8691186B2, “Imaging infection with compounds that bind to thymidine kinase” (priority 2004, dated 2014).
In brackets after ≈: the same amount, converted by molar mass.

What was measured:
Escherichia coli = assay: In vitro bacterial susceptibility assay, wild type E. coli; format: cell-based; settings: for Susceptibility of E. coli to nucleoside analog (growth inhibition): in vitro, Luria broth, 37° C.
Experimental: (§1) 1-(2′-deoxy-2′-fluoro-β-D-arabinofuranosyl)-5-iodouracil (FIAU) (Moravek catalog no. M251) and penciclovir (Moravek catalog no. M972) were purchased from Moravek Biochemicals (Brea, Calif.). Zidovudine was purchased from Glaxo Wellcome. Bacterial susceptibility tests were performed in 96-well microtiter plates (VWR Scientific), with serial dilutions of drug placed in each well. Each well was inoculated with Escherichia coli (Yale University E. coli Genetic Stock Center, New Haven, Conn.) and grown in Luria broth (Invitrogen) at 37° C. E. coli TK mutants were generated by selecting for spontaneously resistant colonies on plates containing 1 mg/ml Zidovudine. Ten resistant clones were selected and screened for deletions in the TK gene by using the PCR primers SZ46-eTKKO20F and (5′-[…]-3′ (SEQ ID NO: 1)) SZ49-eTK-K0789R (5′-ATCAAGACGCAGCACCATG-3′ (SEQ ID NO: 2)). […] As a control for integrity of the DNA of this clone, its 16S rRNA gene was amplified by using the primers SZ-16S-Ecoli993F (5′-ACATCCACGGAAGTTT-TCAG-3′ (SEQ ID NO: 3)) SZ 16S-Ecoli454R (5′-CCGAAGGTTAAGC-TACCTAC-3′ (SEQ ID NO: 4)).
To determine whether endogenous bacterial TK could provide a reporter enzyme suitable for imaging, the susceptibility of E. coli to a variety of common nucleoside analogs was examined in vitro.
(§2) In vitro susceptibility tests were performed on C. novyi-NT using 96 well plates containing two-fold serial dilutions of FIAU (Moravek Biochemicals) in reinforced clostridial media (Difco). Approximately, 10^5-10^6 bacteria were inoculated into each well and incubated at 37 C. overnight in an anaerobic chamber. C. novyi-NT growth was measured using an OD600. In order to test the mechanism of action of FIAU on bacteria, the thymidine kinase (TK) gene in E. coli was knocked out. An in vitro FIAU susceptibility test comparing wild type E. coli with the mutant TK deficient E. coli was preformed. 96 well plates were used containing two-fold serial dilutions of FIAU in Lauria Broth. Approximately, 10^5-10^6 bacteria were inoculated into each well and incubated at 37 C. overnight. Growth was measured using OD600.

C. novyi-NT [1] = assay: In vitro susceptibility test on C. novyi-NT; format: cell-based, Clostridium novyi-NT; settings: reinforced clostridial media, overnight, anaerobic, OD600
Experimental: as §2

TK deficient E. coli = assay: In vitro bacterial susceptibility assay, TK-deleted E. coli; format: cell-based, Escherichia coli; settings: for Susceptibility of TK gene-deleted E. coli derivative: in vitro
Experimental: as §1
To determine whether the TK gene was responsible for this sensitivity, a derivative of E. coli in which the TK gene was deleted was created. […] Because FIAU can be radiolabeled by using commercially available reagents and has been successfully used to image tumor cells transfected with HSV1-TK, it was elected to test its potential for imaging bacterial infections.
as §2, with “96 well plates were used containing two-fold serial dilutions of FIAU in Lauria Broth. Approximately, 10^5-10^6 bacteria were inoculated into each well and incubated at 37 C. overnight.” left out

[2] = tested on: Staphylococcus epidermidis F362; assay: In vivo imaging of S. epidermidis thigh infection in mice; settings: mouse thigh infection
Experimental: (§3) E. coli strains or clinical isolates from the Johns Hopkins Hospital Microbiology Laboratory, including Staphylococcus aureus 29213 and 25923, Streptococcus pneumoniae 49619, Enterococcus faecalis 49532, and Staphylococcus epidermidis F362, were used to create experimental infections. Bacteria were grown to log phase in Mueller Hinton Broth with Cations (Remel, Lenexa, Kans.) or BBL Todd Hewitt Broth (Becton Dickinson). Localized infections were generated by injecting 1×10^9 E. coli and ≈1×10^8 of the other bacterial strains into mouse thighs. […] To quantify the minimal number of bacteria required to generate signals upon imaging, mice were injected in the thigh with various amounts of S. aureus 25923. One hour later, the mice were killed, the muscles were harvested and homogenized, and the extracts spread on blood agar plates (Becton Dickinson) for colony counting.
(§4) Mice were injected with 225 μCi of [^125I]FIAU via the tail vein and imaged at various time points thereafter. Before imaging, mice were anesthetized via s.c. administration of acepromazine and ketamine. Each scan took min with a dedicated small-animal single-photon emission computed tomography (SPECT)/computed tomography (CT) camera (Gamma Medica X-SPECT, Northridge, Calif.) in planar acquisition mode using a low-energy high-resolution (LEHR) parallel-hole collimator. […]

[3] = tested on: Enterococcus faecalis 49532; assay: In vivo imaging of E. faecalis thigh infection in mice; settings: mouse thigh infection
Experimental: as §3, §4

[4] = tested on: E. faecalis, S. aureus, S. epidermidis, and S. pneumoniae; assay: Time course of imaging of infections caused by pathogenic bacteria in mice; format: in vivo
Experimental: as §3
(§5) Mice were injected with 225 μCi of [^125I]FIAU via the tail vein and imaged at various time points thereafter. Before imaging, mice were anesthetized via s.c. administration of acepromazine and ketamine. Each scan took min with a dedicated small-animal single-photon emission computed tomography (SPECT)/computed tomography (CT) camera (Gamma Medica X-SPECT, Northridge, Calif.) in planar acquisition mode using a low-energy high-resolution (LEHR) parallel-hole collimator. For each bacterial strain used, at least two mice were injected and imaged. To obtain SPECT/CT images, animals were first scanned for ≈40 min by using a small-animal SPECT camera in tomographic acquisition mode, using two LEHR parallel-hole collimators. The animals then underwent CT by using appropriate fiducial markers that allowed coregistration.
Accordingly, this time point was chosen for detailed analyses. Biodistribution studies were performed in mice injected with 1×10^8 S. aureus 25923 into one thigh. Six hours later, the mice were injected with 2 μCi of [^125I]FIAU, and, after another 24 h, the mice were killed, their organs were harvested, and radioactivity was determined. […]

[5] = tested on: Staphylococcus aureus 29213 and 25923; assay: In vivo imaging of S. aureus thigh infection in mice; settings: mouse thigh infection
Experimental: as §3, §4

S. aureus 25923 = assay: Minimal number of bacteria that could be imaged in mouse thigh; format: in vivo, Staphylococcus aureus; settings: 1 h after bacterial injection
Experimental: as §3
To determine the minimal number of bacteria that could be imaged with this approach, various numbers of S. aureus 25923 were injected into mouse thighs. One hour later, the thigh tissue was excised, homogenized, and spread on blood agar plates. The 1-h time point was chosen because this was the earliest time point at which injections of [^125I]FIAU consistently produced discernable scintigraphic images of infectious foci. As few as 2×10^6 colony-forming units per gram of muscle tissue produced discernable signals.

WT E. coli = assay: In vivo imaging of WT E. coli thigh infection in mice; design: species or system Escherichia coli
Experimental: as §3, §5
[^125I]FIAU was synthesized by standard methods and injected i.v. into animals 6 h after intramuscular inoculations of bacteria into the thighs of mice. […] Signals from the infectious lesions could be seen as early as 2 h after injection of [^125I]FIAU and were optimal 16 h after injection.

C. novyi-NT [6] = assay: Imaging of intratumoral C. novyi-NT infection in tumor-bearing mice; format: in vivo, Clostridium novyi-NT
Experimental: All animal experiments were overseen and approved by the Animal Welfare Committee of The John Hopkins University and were in compliance with university standards. Six- to 8-wk-old athymic nu/nu or BALB/c mice, purchased from Harlan Bioproducts for Science (Indianapolis), were used for tumor implantation studies. Five million cells were injected s.c. into the right flank of each mouse. Tumor volume was calculated as length×width^2×0.5, and mice were treated with Clostridium novyi-NT spores when tumors occupied ˜250 mm^3. C. novyi-NT spores were prepared as described (15), and mice were i.v. injected with 300 million spores suspended in 250 μl of PBS.
as §5
BALB/c mice bearing CT-26 mouse colon tumors were treated with a single i.v. injection of C. novyi-NT and [^125I]FIAU was administered 24 h later.
For in vivo studies, FIAU was labeled with 1-125. The optimal time course for imaging mice harboring HCTZ 16 colon cancer xenografts was determined empirically by varying the time of injection of FIAU in relation to C. novyi-NT. Biodistribution studies were performed in 12 athymic nu/nu mice harboring HCTZ 16 xenografts ˜350-400 mm^3, six of which were injected with 300 million C. novyi-NT spores 24 hrs prior to 2 uCi of 1-125 FIAU. Eight hours after I-125 FIAU injection, all twelve mice were euthanized by cervical dislocation and the brain, lungs, heart, blood, small and large intestine, liver, kidneys, muscle and tumor were harvested and weighed. The activity in each tissue was measured using an automated gamma counter (LKB Wallace 1282 Compugamma CS Universal Gamma Counter). The percent-injected dose per gram of tissue (% ID/g) was calculated by comparison with samples of a standard dilution of the initial dose. […]

[7] = tested on: TK-deficient (TK−) strain of E. coli; assay: In vivo imaging of TK- E. coli thigh infection in mice; design: species or system Escherichia coli; settings: same mice, opposite thighs
Experimental: as §3, §4

[8] = tested on: Streptococcus pneumoniae 49619; assay: In vivo imaging of S. pneumoniae thigh infection in mice; settings: mouse thigh infection
Experimental: as §3, §4

[9] = BALB/c mice, CT-26 tumors, tracer 24 h after C. novyi-NT i.v.

## O=c1[nH]c(=O)n([C@@H]2O[C@H](CO)[C@@H](O)[C@@H]2F)cc1I [FIAU, 1-(2′-deoxy-2′-fluoro-β-D-arabinofuranosyl)-5-iodouracil]
Escherichia coli
  Susceptibility of E. coli to nucleoside analog (growth inhibition): quite sensitive
Escherichia coli; wild type E. coli, Lauria Broth, overnight, OD600
  log10 IC50 (M): -10
C. novyi-NT [1]
  minimum inhibitory concentration 50 (MIC50): ~20 µg/mL (≈ 53.8 µM)
TK deficient E. coli
  Susceptibility of TK gene-deleted E. coli derivative: highly resistant
TK deficient E. coli; two-fold serial dilutions, overnight, OD600
  Growth inhibition of TK deficient E. coli: not inhibited at any concentration

## O=c1[nH]c(=O)n([C@@H]2O[C@H](CO)[C@@H](O)[C@@H]2F)cc1[125I] [[^125I]FIAU, 2′-fluoro-2′deoxy-1-beta-D-arabinofuranosyl-5-iodo-uracil]
[2]
  Imaging of infectious foci due to S. epidermidis: readily imaged
[3]
  Imaging of infectious foci due to E. faecalis: readily imaged
[4]; 24 h after administration
  Signal-to-noise ratio in infectious foci 24 h after administration: high signal-to-noise ratios
[4]; 48 h after administration of the tracer
  Signal-to-noise ratio by 48 h after administration: very high signal-to-noise ratios
[4]; mouse thigh infections, patient-derived strains
  Earliest time at which robust signals could be observed after administration: 4 h
[5]
  Imaging of infectious foci due to S. aureus: readily imaged
S. aureus 25923
  Minimal number of bacteria producing discernable signals: 2×10^6 colony-forming units per gram of muscle tissue
WT E. coli; WT E. coli thigh infection
  Earliest time at which signals from infectious lesions could be seen after injection: 2 h
  Time after injection at which signals were optimal: 16 h
WT E. coli; tracer i.v. 6 h after i.m. inoculation
  Uptake within infected thighs (whole-body planar scintigram): demonstrated the uptake
C. novyi-NT [6]; [9]
  Earliest time at which tumors could be visualized after injection of tracer: 16 h
  Time of maximum uptake after injection: 24 to 48 h
C. novyi-NT [6]; CT-26 tumors, no C. novyi-NT
  Uptake in tumors not treated with C. novyi-NT: No uptake
C. novyi-NT [6]; HCT116, HuCCTI or CT26 tumors, after C. novyi-NT spores
  Imaging of tumor types responsive to bacteriolytic therapy: able to be imaged
[7]
  Uptake in thighs inoculated with TK- E. coli: no discernable uptake
[8]
  Imaging of infectious foci due to S. pneumoniae: readily imaged

## Nc1nc2c(ncn2COC(CO)CO)c(=O)[nH]1 [genciclovir]
Escherichia coli
  Susceptibility of E. coli to nucleoside analog (growth inhibition): resistant

## Cc1cn([C@H]2C[C@H](N=[N+]=[N-])[C@@H](CO)O2)c(=O)[nH]c1=O [Zidovudine]
Escherichia coli
  Susceptibility of E. coli to nucleoside analog (growth inhibition): quite sensitive
TK deficient E. coli
  Susceptibility of TK gene-deleted E. coli derivative: moderately resistant

## Nc1nc2c(ncn2CCC(CO)CO)c(=O)[nH]1 [penciclovir]
Escherichia coli
  Susceptibility of E. coli to nucleoside analog (growth inhibition): resistant
